Results as given in patent publication US5968910A, “Compositions containing two or three inhibitors of different HIV reverse transcriptases” (priority 1994, dated 1999).
≈ marks a conversion by molar mass, not a printed value. Where two headings read alike, the source gives them in different places.

Tests used:
HIV-1(IIIB) = experiment: Knock-out concentrations: breakthrough of HIV-1(IIIB)-induced cytopathicity in CEM cell cultures; assay type: cell-based; settings: for activity at 0.1 µg/mL / activity at 0.5 µg/mL / activity at 2.5 µg/mL: Human immunodeficiency virus 1, IIIB, CCRF-CEM, read-out: HIV-1-induced cytopathicity in cell culture; for activity at 0.1 µg/mL: 0.1 μg/ml; for activity at 0.5 µg/mL: 0.5 μg/ml; for activity at 2.5 µg/mL: 2.5 μg/ml
Procedure, shortened: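 CEM cells in RPMI 1640 with 10% FBS infected with HIV-1(IIIB) at ~1000× CCID50, subcultured every 3–4 days into fresh uninfected cells with drug held constant for 10 subcultivations (35 days), then ≥5 drug-free passages. Breakthrough scored by syncytium formation. Combinations used the two lowest single-drug starting concentrations.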

HIV-1 RT (WT) = HIV-1 RT (WT) (Human immunodeficiency virus type 1 group M subtype B, UniProt P03366); experiment: biochemical
Procedure, shortened: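 Inhibition read as reduced incorporation of [2,8-³H]dGTP (2.95 μM) into acid-precipitable product on a poly(C).oligo(dG) template/primer (0.1 mM). Recombinant RT, test compounds in 5-fold dilutions; 30 min, 37° C, pH 7.8 Tris buffer with 5 mM Mg2+, 150 mM KCl.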

[1] = tested on: HIV-1/V(0.1) 101-Ile + 141-Glu; experiment: Sensitivity of mutant HIV-1 strain in CEM cell cultures; assay type: cell-based; settings: Human immunodeficiency virus 1, CCRF-CEM; Table 5; read-out: EC50
Procedure, shortened: (§1)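 CEM cells at 250,000 cells/ml were infected with HIV-1 at 100 CCID50 per ml, then mixed with serial dilutions of test compound. After 4 days at 37° C., cultures were scored for syncytium formation.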

HIV-1/Pyr (181-Cys) = experiment: as above; assay type: cell-based; settings: Human immunodeficiency virus 1, CCRF-CEM; CEM cells, Table 1; read-out: 50% Effective Concentration
Procedure, shortened: as §1

HIV-1/II(0.1) 100-Ile = experiment: as above; assay type: cell-based; settings: Human immunodeficiency virus 1, CCRF-CEM; Table 5; read-out: EC50
Procedure, shortened: as §1

HIV-1/I(0.1) 103-Asn = experiment: as above; assay type: cell-based; settings: Human immunodeficiency virus 1, CCRF-CEM; Table 5; read-out: EC50
Procedure, shortened: as §1

[2] = tested on: HIV-1/TIBO R82150 (100-Ile); experiment: as above; assay type: cell-based; settings: Human immunodeficiency virus 1, CCRF-CEM; CEM cells, Table 1; read-out: 50% Effective Concentration
Procedure, shortened: as §1

HIV-1/V(0.5) 103-Asn = experiment: as above; assay type: cell-based; settings: Human immunodeficiency virus 1, CCRF-CEM; Table 5; read-out: EC50
Procedure, shortened: as §1

[3] = tested on: HIV-1/TIBO R82913 (103-Asn); experiment: as above; assay type: cell-based; settings: Human immunodeficiency virus 1, CCRF-CEM; CEM cells, Table 1; read-out: 50% Effective Concentration
Procedure, shortened: as §1

HIV-1/III(0.1) 103-Asn = experiment: as above; assay type: cell-based; settings: Human immunodeficiency virus 1, CCRF-CEM; Table 5; read-out: EC50
Procedure, shortened: as §1

HIV-1/IV(0.1) 103-Thr = experiment: as above; assay type: cell-based; settings: Human immunodeficiency virus 1, CCRF-CEM; Table 5; read-out: EC50
Procedure, shortened: as §1

HIV-1/Nev (106-Ala) = experiment: as above; assay type: cell-based; settings: Human immunodeficiency virus 1, CCRF-CEM; CEM cells, Table 1; read-out: 50% Effective Concentration
Procedure, shortened: as §1

[4] = tested on: HIV-1/TSAO-m^3 T (138-Lys); experiment: as above; assay type: cell-based; settings: Human immunodeficiency virus 1, CCRF-CEM; CEM cells, Table 1; read-out: 50% Effective Concentration
Procedure, shortened: as §1

HIV-1(IIIB) (WT) = experiment: microbe, parasite or virus in culture; assay type: cell-based; settings: Human immunodeficiency virus 1, IIIB, CCRF-CEM
Procedure, shortened: as §1

[5] = 936 h, day 39 post infection, compound absent from day 35
[6] = 1008 h, day 42 post infection, compound absent from day 35
[7] = 1104 h, day 46 post infection, compound absent from day 35
[8] = 1176 h, day 49 post infection, compound absent from day 35
[9] = 1272 h, day 53 post infection, compound absent from day 35

Cc1occc1C(=S)Nc1ccc(Cl)c(C(=O)OC2CCCC2)c1 [Compound IV]
prevention of virus breakthrough, fold more efficient than BHAP (HIV-1(IIIB)): at least 5 fold | prevention of virus breakthrough, fold more efficient than nevirapine (HIV-1(IIIB)): ≥ 25 fold | activity at 0.1 µg/mL (HIV-1(IIIB); 96 h, day 4 post infection): 0% | activity at 0.5 µg/mL (HIV-1(IIIB); 96 h, day 4 post infection): 0% | activity at 2.5 µg/mL (HIV-1(IIIB); 96 h, day 4 post infection): 0% | activity at 0.1 µg/mL (HIV-1(IIIB); 192 h, day 8 post infection): 0% | activity at 0.5 µg/mL (HIV-1(IIIB); 192 h, day 8 post infection): 0% | activity at 2.5 µg/mL (HIV-1(IIIB); 192 h, day 8 post infection): 0% | activity at 0.1 µg/mL (HIV-1(IIIB); 264 h, day 11 post infection): 0% | activity at 0.5 µg/mL (HIV-1(IIIB); 264 h, day 11 post infection): 0% | activity at 2.5 µg/mL (HIV-1(IIIB); 264 h, day 11 post infection): 0% | activity at 0.1 µg/mL (HIV-1(IIIB); 336 h, day 14 post infection): 6.2% | activity at 0.5 µg/mL (HIV-1(IIIB); 336 h, day 14 post infection): 0% | activity at 2.5 µg/mL (HIV-1(IIIB); 336 h, day 14 post infection): 0% | activity at 0.1 µg/mL (HIV-1(IIIB); 408 h, day 17 post infection): 25% | activity at 0.5 µg/mL (HIV-1(IIIB); 408 h, day 17 post infection): 0% | activity at 2.5 µg/mL (HIV-1(IIIB); 408 h, day 17 post infection): 0% | activity at 0.1 µg/mL (HIV-1(IIIB); 504 h, day 21 post infection): 87.5% | activity at 0.5 µg/mL (HIV-1(IIIB); 504 h, day 21 post infection): 0% | activity at 2.5 µg/mL (HIV-1(IIIB); 504 h, day 21 post infection): 0% | activity at 0.1 µg/mL (HIV-1(IIIB); 600 h, day 25 post infection): 100% | activity at 0.5 µg/mL (HIV-1(IIIB); 600 h, day 25 post infection): 0% | activity at 2.5 µg/mL (HIV-1(IIIB); 600 h, day 25 post infection): 0% | activity at 0.1 µg/mL (HIV-1(IIIB); 672 h, day 28 post infection): 100% | activity at 0.5 µg/mL (HIV-1(IIIB); 672 h, day 28 post infection): 0% | activity at 2.5 µg/mL (HIV-1(IIIB); 672 h, day 28 post infection): 0% | activity at 0.1 µg/mL (HIV-1(IIIB); 768 h, day 32 post infection): 100% | activity at 0.5 µg/mL (HIV-1(IIIB); 768 h, day 32 post infection): 0% | activity at 2.5 µg/mL (HIV-1(IIIB); 768 h, day 32 post infection): 0% | activity at 0.1 µg/mL (HIV-1(IIIB); 840 h, day 35 post infection): 100% | activity at 0.5 µg/mL (HIV-1(IIIB); 840 h, day 35 post infection): 0% | activity at 2.5 µg/mL (HIV-1(IIIB); 840 h, day 35 post infection): 0% | activity at 0.1 µg/mL (HIV-1(IIIB); [5]): 100% | activity at 0.5 µg/mL (HIV-1(IIIB); [5]): 0% | activity at 2.5 µg/mL (HIV-1(IIIB); [5]): 0% | activity at 0.1 µg/mL (HIV-1(IIIB); [6]): 100% | activity at 0.5 µg/mL (HIV-1(IIIB); [6]): 0% | activity at 2.5 µg/mL (HIV-1(IIIB); [6]): 0% | activity at 0.1 µg/mL (HIV-1(IIIB); [7]): 100% | activity at 0.5 µg/mL (HIV-1(IIIB); [7]): 0% | activity at 2.5 µg/mL (HIV-1(IIIB); [7]): 0% | activity at 0.1 µg/mL (HIV-1(IIIB); [8]): 100% | activity at 0.5 µg/mL (HIV-1(IIIB); [8]): 0% | activity at 2.5 µg/mL (HIV-1(IIIB); [8]): 0% | activity at 0.1 µg/mL (HIV-1(IIIB); [9]): 100% | activity at 0.5 µg/mL (HIV-1(IIIB); [9]): 0% | activity at 2.5 µg/mL (HIV-1(IIIB); [9]): 0% | concentration at which virus emerged (virus breakthrough) (HIV-1(IIIB); tested at 0.1, 0.5 and 2.5 μg/ml, 35 days): 0.1 µg/mL | IC50 (HIV-1 RT (WT); range stated for the compounds together, poly(C).oligo(dG), 2.95 μM [2,8-3H]dGTP, read-out: IC50 on recombinant HIV-1 RT): 49.5 to 212 nM | IC50 (HIV-1 RT (WT); substrate [2,8-3H]dGTP 2.95 μM, template poly(rC)oligo(dG), read-out: IC50, anti-HIV-1 RT (WT) activity (converted)): 49.5 nM | EC50 [1]: 0.11 µg/mL (≈ 0.302 µM) | EC50 (HIV-1/Pyr (181-Cys)): 0.045 µg/mL (≈ 0.124 µM) | EC50 (HIV-1/II(0.1) 100-Ile): 0.4 µg/mL (≈ 1.1 µM) | EC50 (HIV-1/I(0.1) 103-Asn): 0.2 µg/mL (≈ 0.55 µM) | EC50 [2]: 0.17 µg/mL (≈ 0.467 µM) | EC50 (HIV-1/V(0.5) 103-Asn): 0.65 µg/mL (≈ 1.79 µM) | EC50 [3]: 0.7 µg/mL (≈ 1.92 µM) | EC50 (HIV-1/III(0.1) 103-Asn): 0.14 µg/mL (≈ 0.385 µM) | EC50 (HIV-1/IV(0.1) 103-Thr): 0.53 µg/mL (≈ 1.46 µM) | EC50 (HIV-1/Nev (106-Ala)): 0.04 µg/mL (≈ 0.11 µM) | EC50 [4]: 0.035 µg/mL (≈ 0.0962 µM) | EC50 (HIV-1(IIIB) (WT); CEM cells, Table 1, read-out: 50% Effective Concentration): 0.005 µg/mL (≈ 0.0137 µM) | EC50 (HIV-1(IIIB) (WT); HIV-1 (III8), Table 5, read-out: EC50): 0.005 µg/mL (≈ 0.0137 µM) | IC50 (HIV-1(IIIB) (WT); range stated for Compounds I-V together, read-out: 50% inhibitory concentration, HIV-1(IIIB) replication in CEM cells): 0.004 to 0.05 µg/mL (≈ 0.011 to 0.137 µM)
